# Measurements as given in ChEMBL document CHEMBL1201862, “PubChem BioAssay data set” (2004).
# Activity calls are given as the source filed them. Cut-off read from the data, not from the text of the source, for most assays here: actives have a measured EC50 and inactives only a lower limit.
# Legend:
# [1] = Trypanosoma cruzi growth suppression in host cells – NIH3T3 host cells, beta-gal luminescence, confirmation (AID 2044); assay type: functional, cell-based;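 note: intracellular parasites grown in NIH/3T3 mouse fibroblasts as host cells; luminescent beta-galactosidase reporter signal from transgenic T. cruzi replicating inside host cells; inhibitors lower the luminescence signal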
# [2] = NIH3T3 cell viability loss – ATP luminescence, mouse fibroblasts, counter-screen, dose response (AID 2010); assay type: functional, cell-based;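 note: cells exposed to compound for about 90 hours before reading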
# [3] = viability of uninfected HEp-2 cells – cell-based, HTS, cytotoxicity control for RSV inhibitor project, dose response (AID 2410); assay type: functional; conditions: human respiratory syncytial virus
# Cytochrome P450 2D6 = Cytochrome P450 2D6 (Homo sapiens, UniProt P10635);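 note: CYP2D6 member of a cytochrome P450 panel assay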
# [4] = molecular target: T1, Heat shock factor protein 1 (Mus musculus, UniProt P38532); assay: decrease of HSF1-responsive luciferase luminescence – cell-based, NIH3T3, dose retest, confirmation (AID 2382); assay type: functional;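 note: NIH3T3 fibroblasts with HSF1-driven luciferase reporter stressed by proteasome inhibitor MG132; luminescence from HSF1-driven luciferase expression after 8 hours of MG132 stress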
# T1 sequence (P38532 whole entry): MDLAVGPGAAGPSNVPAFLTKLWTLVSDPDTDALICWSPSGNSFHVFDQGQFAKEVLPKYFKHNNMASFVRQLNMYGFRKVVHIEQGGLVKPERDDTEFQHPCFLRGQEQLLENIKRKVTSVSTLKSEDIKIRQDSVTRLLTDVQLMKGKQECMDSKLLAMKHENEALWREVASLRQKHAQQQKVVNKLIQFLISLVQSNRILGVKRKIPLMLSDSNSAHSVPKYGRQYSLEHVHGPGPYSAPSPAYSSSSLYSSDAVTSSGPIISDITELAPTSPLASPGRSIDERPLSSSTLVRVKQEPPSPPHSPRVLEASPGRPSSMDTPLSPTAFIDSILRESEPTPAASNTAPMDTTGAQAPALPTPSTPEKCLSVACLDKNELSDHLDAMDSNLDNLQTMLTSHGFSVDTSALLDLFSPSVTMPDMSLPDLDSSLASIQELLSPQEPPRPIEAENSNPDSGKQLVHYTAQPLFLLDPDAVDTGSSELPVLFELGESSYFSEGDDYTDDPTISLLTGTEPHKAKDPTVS
# Cytochrome P450 2C9 = Cytochrome P450 2C9 (Homo sapiens, UniProt P11712)
# Streptococcus = assay: GAS UMAA2166 growth inhibition – luminescence, BacTiterGlo, counter-screen for streptokinase expression inhibitor project, dose response (AID 1915); assay type: functional, organism-based;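 note: potency for reduction of bacterial viability or growth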
# [5] = test system: Streptococcus sp. 'group A'; assay: Streptococcus pyogenes SK(-)GAS viability under kanamycin – luminescence, BacTiterGlo, confirmation, counter-screen for streptokinase expression inhibitor project, dose response (AID 1900); assay type: functional, organism-based
# Chain of Cytochrome P450 2C9 (P11712 whole entry): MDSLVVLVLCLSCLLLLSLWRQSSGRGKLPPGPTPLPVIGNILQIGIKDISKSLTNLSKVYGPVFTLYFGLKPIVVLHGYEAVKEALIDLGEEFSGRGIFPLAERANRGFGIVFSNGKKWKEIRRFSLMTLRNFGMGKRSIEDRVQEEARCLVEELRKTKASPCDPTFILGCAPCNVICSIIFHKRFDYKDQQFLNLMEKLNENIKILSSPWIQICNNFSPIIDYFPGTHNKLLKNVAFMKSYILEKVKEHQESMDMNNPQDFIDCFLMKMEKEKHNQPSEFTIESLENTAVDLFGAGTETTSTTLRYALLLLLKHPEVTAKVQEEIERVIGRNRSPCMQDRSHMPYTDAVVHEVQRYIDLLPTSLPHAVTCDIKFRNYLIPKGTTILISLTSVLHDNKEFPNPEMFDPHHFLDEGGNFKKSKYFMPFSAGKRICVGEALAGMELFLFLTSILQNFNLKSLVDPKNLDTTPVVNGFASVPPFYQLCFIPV
# Chain of Cytochrome P450 2D6 (P10635 whole entry): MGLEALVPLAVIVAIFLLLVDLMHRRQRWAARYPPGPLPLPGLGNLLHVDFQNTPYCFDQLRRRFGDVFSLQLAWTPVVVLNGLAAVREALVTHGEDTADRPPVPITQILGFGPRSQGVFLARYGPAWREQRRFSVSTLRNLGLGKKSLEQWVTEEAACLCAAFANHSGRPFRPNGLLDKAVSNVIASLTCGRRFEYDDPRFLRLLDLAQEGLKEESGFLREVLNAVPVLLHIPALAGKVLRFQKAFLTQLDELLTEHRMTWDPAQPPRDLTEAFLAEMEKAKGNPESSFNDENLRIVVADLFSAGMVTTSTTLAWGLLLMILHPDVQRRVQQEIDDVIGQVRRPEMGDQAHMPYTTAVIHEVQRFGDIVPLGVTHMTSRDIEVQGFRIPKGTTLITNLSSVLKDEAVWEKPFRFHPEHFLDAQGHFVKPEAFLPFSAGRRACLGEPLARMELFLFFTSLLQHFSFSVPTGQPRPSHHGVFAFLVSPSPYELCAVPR
structure (smiles),measurement,setting,value
O=S(=O)(NCC(c1cccnc1)N1CCN(Cc2ccccc2)CC1)c1ccccc1 (stereo unspecified),EC50,[1],0.634 µM (active)
same,EC50,[2],> 60 µM (not active)
O=c1ccc2ccc(OCCOc3cccc(Cl)c3)cc2o1,CC50,[3],42.4 µM (active)
COc1ccc(Nc2nc(-c3cccs3)nc3ccccc23)cc1S(=O)(=O)N1CCOCC1,EC50,[1],1.25 µM (active)
same,CC50,[3],17.1 µM (active)
same,EC50,[2],10.1 µM (active)
O=C(c1ccncc1)N1CCC2(CCCN(c3ccc(-c4ccccc4)cc3)C2)CC1,AC50,Cytochrome P450 2D6,12.6 µM (inconclusive)
Clc1cccc(/C=N\C=N/c2cccc(Cl)c2)c1,AC50,Cytochrome P450 2D6,25.1 µM (inconclusive)
CCN1c2nc3c(C)cccn3c(=O)c2CC2(C(=O)N(C)C(=O)N(C)C2=O)C1C (stereo unspecified),EC50,[4],> 195 µM (not active)
CCN(CC)CCn1c(=N)n(CCOc2ccccc2)c2ccccc21,EC50,[1],1.43 µM (active)
COCCNC(=O)CCc1nnc(C2(c3ccc(Cl)cc3)CCC2)o1,EC50,[4],> 195 µM (not active)
O=C(C(NS(=O)(=O)c1cccs1)c1ccccc1)N1CCN(c2ccccc2)CC1 (stereo unspecified),AC50,Cytochrome P450 2D6,25.1 µM (inconclusive)
CS(=O)(=O)Nc1cccc(-c2ccc3ncnc(NCc4cccs4)c3c2)c1,AC50,Cytochrome P450 2C9,0.501 µM (inconclusive)
CCOc1cc(-n2ncc(C#N)c2N)nc(SC)n1,CC50,[3],17.1 µM (active)
COc1cccc(C(=O)Nc2cccc(-c3ccccc3)c2)c1,CC50,[3],29.6 µM (active)
O=C(Nc1ccc(Cl)cn1)c1ccc2c(Cl)c3c(nc2c1)CCC3,EC50,[4],22.5 µM (active)
CS(=O)(=O)N1CCc2cc(-c3csc(NC(=O)C(c4ccccc4)c4ccccc4)n3)ccc21,EC50,[1],1.45 µM (active)
same,EC50,[2],> 60 µM (not active)
CN(C)C(=O)N1CCC(C(=O)NCc2ccc(F)cc2Cl)CC1,EC50,[4],> 195 µM (not active)
CCOC(=O)C1=C(C)N(CCC(=O)O)C(=O)NC1c1ccccc1Cl (stereo unspecified),EC50,[4],> 195 µM (not active)
CN1CCc2c(cc(O)c(O)c2Cl)[C@H](c2cccc(Cl)c2)C1,AC50,Cytochrome P450 2D6,31.6 µM (inconclusive)
Cc1cc(C(=O)NNS(=O)(=O)c2ccc(F)cc2)nn1C(C)(C)C,EC50,[4],> 195 µM (not active)
CCCCCCCC(=O)NNC(=O)c1c(O)c2ccccc2n(CCC)c1=O,EC50,Streptococcus,4.91 µM (active)
same,EC50,[5],2.67 µM (active)
COC1(C[S+]([O-])c2ccccc2)CCN(CCc2c[nH]c3ccc(F)cc23)CC1 (stereo unspecified),AC50,Cytochrome P450 2D6,15.8 µM (inconclusive)
same,AC50,Cytochrome P450 2C9,25.1 µM (inconclusive)
CC1CCCN(S(=O)(=O)c2ccc(Br)s2)C1 (stereo unspecified),EC50,[4],> 195 µM (not active)
O=C(NC(c1ccccc1)c1cc(Cl)c2cccnc2c1O)c1cccnc1 (stereo unspecified),EC50,Streptococcus,2.15 µM (active)
same,EC50,[1],0.488 µM (active)
same,EC50,[2],> 60 µM (not active)
same,EC50,[5],0.64 µM (active)
CCc1cccc(Nc2c([N+](=O)[O-])cc(C(=O)N3CC(=O)Nc4ccccc43)cc2[N+](=O)[O-])c1,EC50,[1],1.1 µM (active)
same,EC50,[2],> 30 µM (not active)
Cc1cccc(CNc2ccnc(-c3ccoc3)n2)c1,AC50,Cytochrome P450 2D6,31.6 µM (inconclusive)
Cn1nc(-c2ccc(Cl)cc2)cc1NC(=O)Nc1ccccc1,CC50,[3],> 50 µM (active)
COc1ccc(CC(=O)Nc2cc(C)on2)cc1,EC50,[4],> 195 µM (not active)
O=[N+]([O-])c1ccc(N2CCN(Cc3ccc4c(c3)OCO4)CC2)nc1,EC50,[4],> 195 µM (not active)
O=C(O)CCn1cc(/C=C2\NC(=S)N(c3ccccc3)C2=O)c(-c2ccc(Br)cc2)n1,EC50,[4],> 195 µM (not active)
COc1ccc(-c2cc(-c3ccccc3)nc(Cl)n2)cc1OC,CC50,[3],19.1 µM (active)
Cn1c(=O)c(-c2cccc(Cl)c2)nc2cncnc21,AC50,Cytochrome P450 2C9,39.8 µM (inconclusive)
CN1CCN(c2ccc([N+](=O)[O-])c(N/N=C3\CN4CCC3CC4)c2)CC1,AC50,Cytochrome P450 2C9,0.01 µM (inconclusive)
Clc1ccc(-n2cccc2CN2CCc3c([nH]c4ccccc34)C2c2ccccn2)nc1 (stereo unspecified),CC50,[3],25.1 µM (active)
CNCCCCOc1ccc(C(C)(C)C)cc1Cl,EC50,[1],0.834 µM (active)
same,EC50,[2],9.37 µM (active)
O=c1c(-c2ccc(F)cc2)nc2cnc(N3CCNCC3)nc2n1Cc1cccs1,AC50,Cytochrome P450 2D6,20 µM (inconclusive)
C[C@H](NC[C@H](O)CP(=O)(O)Cc1ccccc1)c1ccc(Cl)c(Cl)c1,AC50,Cytochrome P450 2C9,15.8 µM (inconclusive)
Cc1ccc(-n2c(S)nnc2CNc2ccc(C)c(Cl)c2)cc1,CC50,[3],27.7 µM (active)
CC(C)OCCCn1c(NN)nc2ccccc2c1=O,EC50,[4],> 195 µM (not active)
OC[C@@H]1O[C@@H](n2cnc3c(N[C@H]4CCC[C@@H]4O)ncnc32)[C@H](O)[C@H]1O,AC50,Cytochrome P450 2D6,15.8 µM (inconclusive)
O=C(c1ccccc1Nc1ccc(SC(F)F)cc1)N1CCCCC1,AC50,Cytochrome P450 2D6,1.12 µM (inconclusive)
same,AC50,Cytochrome P450 2C9,2.82 µM (inconclusive)
O=C(COc1ccccc1)NC1C(=O)N2C(C(=O)O)=C(Cl)CSC12 (stereo unspecified),EC50,Streptococcus,0.372 µM (active)
same,EC50,[5],0.301 µM (active)
C[n+]1c(/C=C/c2ccc3c(c2)OCO3)ccc2ccccc21,EC50,[4],0.181 µM (active)
COc1ccc(Cn2c(SC)nc3ccccc32)cc1[N+](=O)[O-],EC50,[4],> 195 µM (not active)
FC(F)(F)c1ccccc1-c1nc(Nc2ccncc2)c2ccccc2n1,AC50,Cytochrome P450 2C9,0.794 µM (inconclusive)
Cc1ccc(/C(C#N)=C\c2cn(C)c3ccccc23)cc1,CC50,[3],33.5 µM (active)
COC(=O)C(O)(c1ccc(NC(=S)NC(=O)c2ccc(Cl)cc2Cl)cc1)C(F)(F)F (stereo unspecified),CC50,[3],> 50 µM (active)
COc1ccc(Cn2nnnc2C(c2cc3cccc(C)c3nc2O)N2CCN(C)CC2)cc1 (stereo unspecified),EC50,[4],> 195 µM (not active)
COc1ccc(Cn2nnc3c(O)nc(C4CCN(S(=O)(=O)c5ccc(C)cc5)CC4)nc32)cc1,CC50,[3],15.7 µM (active)
COC(=O)C(Cc1ccccc1)NC(=O)CNC(=O)c1sc2ccccc2c1Cl (stereo unspecified),EC50,[4],> 195 µM (not active)
CN(C)Cc1cc(O)c(O)c(CN(C)C)c1,AC50,Cytochrome P450 2C9,7.94 µM (inconclusive)
CCN(CC)CCNc1cc(C)c(C#N)c2nc3ccccc3n12,EC50,[1],1.09 µM (active)
same,EC50,[2],> 60 µM (not active)
Cn1nc(C(F)(F)F)c(C(=O)Nc2ccc(F)cc2F)c1Sc1ccc(C(F)(F)F)cc1,AC50,Cytochrome P450 2D6,14.1 µM (inconclusive)
Cn1nc([N+](=O)[O-])nc1Oc1ccccc1,EC50,[1],0.459 µM (active)
same,EC50,[2],> 60 µM (not active)
CC(NC(=O)c1ccccc1Br)c1ccc2c(c1)CCCC2 (stereo unspecified),CC50,[3],21.5 µM (active)
COc1cccc(Cn2c(=O)c(-c3cc(F)cc(F)c3)nc3cnc(OC)nc32)c1,AC50,Cytochrome P450 2C9,3.16 µM (inconclusive)
COc1ccc(CNC(=O)C2CC(c3ccc(OC)cc3)=NO2)cc1 (stereo unspecified),AC50,Cytochrome P450 2D6,8.91 µM (inconclusive)
CCC(C)c1ccccc1NC(=O)c1cc2cccc([N+](=O)[O-])c2[nH]1 (stereo unspecified),EC50,[1],1.35 µM (active)
same,EC50,[2],> 60 µM (not active)
Cc1nn(Cc2cccc(C(=O)Nc3ccn(Cc4c(F)c(F)cc(F)c4F)n3)c2)c(C)c1[N+](=O)[O-],EC50,[1],0.882 µM (active)
same,CC50,[3],23.8 µM (active)
same,EC50,[2],> 60 µM (not active)
Cn1c(=O)c2c(nc(Oc3cccc(O)c3)n2C)n(C)c1=O,EC50,[4],> 195 µM (not active)
Cc1occc1-c1nc(-c2ccncc2)no1,CC50,[3],39.6 µM (active)
COc1cc(C(C(=O)NCc2ccccc2)N(Cc2ccco2)C(=O)c2cnccn2)cc(OC)c1OC (stereo unspecified),EC50,[4],> 195 µM (not active)
Cn1c(/C=C/c2ccccc2)nc2ccccc2c1=O,EC50,[4],> 195 µM (not active)
C=CCSc1nc(N)cc(O)n1,EC50,[4],> 195 µM (not active)
COc1ccc(/C=N/c2c(-c3ccc(OC)cc3)nc3n2CCS3)cc1,EC50,[4],> 195 µM (not active)
N#Cc1cccc(C#N)c1Oc1ccc(S(=O)(=O)Nc2ccc(Cl)cc2)cc1,EC50,[4],> 195 µM (not active)
O=C1NC(=O)C2(CCc3ccccc32)N1 (stereo unspecified),EC50,[4],> 195 µM (not active)
CCCS(=O)(=O)N1CCCC(C(=O)NCCN2CCOCC2)C1 (stereo unspecified),AC50,Cytochrome P450 2C9,7.08 µM (inconclusive)
CC(C)OC(=O)C1=C2SCC(=O)N2C(N)=C(C#N)C1,AC50,Cytochrome P450 2D6,25.1 µM (inconclusive)
O=C(Oc1ccccc1)N1CCC[C@@]2(CCN(c3ccccn3)C2)C1,AC50,Cytochrome P450 2C9,39.8 µM (inconclusive)
CC(=O)N1CCC[C@@]2(CCN(c3ncccn3)C2)C1,AC50,Cytochrome P450 2D6,15.8 µM (inconclusive)
CCN(CC)CCCN/C(C)=C1\C(=O)NC(=O)N(C2CCCCC2)C1=O,EC50,[1],0.35 µM (active)
same,EC50,[2],> 60 µM (not active)
CCC(C(=O)NC(C)(C)C)N(Cc1ccc(F)cc1)C(=O)c1snc(C(N)=O)c1N (stereo unspecified),EC50,[4],> 195 µM (not active)
O=C(NCc1ccccc1Cl)C(=O)c1c[nH]c2ccccc12,CC50,[3],> 6.25 µM (active)
